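Step 1: Grow cells in 96-well plates. Step 2: Expose to compound for 48 hours at 5 concentrations. Step 3: Interpolate endpoints linearly; if unreached, use highest concentration. Abbreviation: GI50, concentration required for 50% inhibition of growth.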 Activity calls are given as the source filed them. Cut-off read from the data, not from the text of the source: active = GI50 up to about 1.1 µM and inactive = higher.
Columns and labels:
Test in all cases: inhibition of tumour cell growth, NCI panel, 48 h
HT-29 = tested on: HT-29
OVCAR-4 = tested on: OVCAR-4
MCF7 = tested on: MCF7
EKVX = tested on: EKVX
OVCAR-5 = tested on: OVCAR-5
BT-549 = tested on: BT-549
M14 = tested on: M14
UO-31 = tested on: UO-31
U-251 = tested on: U-251
A498 = tested on: A498
HCT-15 = tested on: HCT-15
UACC-62 = tested on: UACC-62
786-0 = tested on: 786-0
MDA-MB-435 = tested on: MDA-MB-435
SNB-75 = tested on: SNB-75
SF-268 = tested on: SF-268
SR = tested on: SR
SF-539 = tested on: SF-539
NCI-H460 = tested on: NCI-H460
RXF 393 = tested on: RXF 393

Row | Compound | GI50 (HT-29) | GI50 (OVCAR-4) | GI50 (MCF7) | GI50 (EKVX) | GI50 (OVCAR-5) | GI50 (BT-549) | GI50 (M14) | GI50 (UO-31) | GI50 (U-251) | GI50 (A498) | GI50 (HCT-15) [µM] | GI50 (UACC-62) | GI50 (786-0) | GI50 (MDA-MB-435) | GI50 (SNB-75) | GI50 (SF-268) | GI50 (SR) | GI50 (SF-539) | GI50 (NCI-H460) | GI50 (RXF 393)
1 | COc1cc(OCc2ccccc2)c2c(CCC(=O)O)cc(=O)oc2c1.COc1cc(OCc2ccccc2)cc2oc(=O)cc(CCC(=O)O)c12 | 36.7 µM (inactive) | 47.6 µM (inactive) | 2.59 µM (inactive) | 36.8 µM (inactive) | > 100 µM (inactive) | 57.5 µM (inactive) | 92.5 µM (inactive) | 43.4 µM (inactive) | 55 µM (inactive) | 14.7 µM (inactive) | 27 | 63.2 µM (inactive) | 92.5 µM (inactive) | 61.7 µM (inactive) | 60.1 µM (inactive) | 61 µM (inactive) | 38.9 µM (inactive) | 71.6 µM (inactive) |  | 
2 | NNC(=O)c1ccccc1Nc1nc(-c2cccs2)nc2ccc(Br)cc12 | 78.5 µM (inactive) | 6.7 µM (inactive) | 49.5 µM (inactive) | > 100 µM (inactive) | > 100 µM (inactive) | 84.1 µM (inactive) | 86.7 µM (inactive) | > 100 µM (inactive) | 23.2 µM (inactive) | > 100 µM (inactive) | 14.7 | > 100 µM (inactive) | 49.5 µM (inactive) | 77.4 µM (inactive) | 45.4 µM (inactive) | 31.1 µM (inactive) | > 100 µM (inactive) | > 100 µM (inactive) | 87.3 µM (inactive) | 
3 | CC(C)(C)CNCCCNc1ccc(Cl)cc1 | 20.2 µM (inactive) | 60.8 µM (inactive) | 11.9 µM (inactive) | 48.6 µM (inactive) | 51.8 µM (inactive) | 70.6 µM (inactive) | 23 µM (inactive) | 61.2 µM (inactive) | > 100 µM (inactive) | 14.8 µM (inactive) | 93.1 | 17.2 µM (inactive) | 82.2 µM (inactive) | 30.1 µM (inactive) |  | 65.6 µM (inactive) | 5.41 µM (inactive) | 92.9 µM (inactive) | 37.2 µM (inactive) | 15.7 µM (inactive)
4 | O=C(Nc1cccc(F)c1)c1cc2ccc(O)cc2o/c1=N\c1cccc(F)c1 | > 100 µM (inactive) | 3.59 µM (inactive) | 3.58 µM (inactive) | 3.78 µM (inactive) | 34 µM (inactive) | 4.82 µM (inactive) | 7.73 µM (inactive) | 4.36 µM (inactive) | 3.99 µM (inactive) | 33 µM (inactive) | 3.15 | 5.57 µM (inactive) | 7.85 µM (inactive) | 5.12 µM (inactive) |  | 3.03 µM (inactive) | 4.5 µM (inactive) | 19.8 µM (inactive) | 4.26 µM (inactive) | 
5 | COc1c(OC/C=C(\C)CCC=C(C)C)ccc2ccc(=O)oc12 [COLLININ] | 94.4 µM (inactive) | 51.8 µM (inactive) | > 100 µM (inactive) | 83.9 µM (inactive) | > 100 µM (inactive) | 53.3 µM (inactive) | > 100 µM (inactive) | > 100 µM (inactive) | > 100 µM (inactive) | > 100 µM (inactive) | 64.9 | 94.2 µM (inactive) | > 100 µM (inactive) | > 100 µM (inactive) | > 100 µM (inactive) | 96.8 µM (inactive) | 61.5 µM (inactive) | > 100 µM (inactive) | > 10 µM (inactive) | 

Source: ChEMBL document CHEMBL1201862, “PubChem BioAssay data set” (2004)
